Assay [1] concerns the target T1, cS1P5 receptor (Canis lupus familiaris, UniProt A0A8I3Q0H0). As to the kind of experiment: 35S-GTPγS binding assay with membranes from transfected CHO cells expressing the cS1P5 receptor. The assay is classed as biochemical, Canis (dog). Conditions: 5 μM GDP, 100 pM 35S-GTPγS, one hour at room temperature, FIG. 4, read-out: EC50 (35S-GTPγS binding, coupling GTP to Gα). As for the experimental part:
Functional coupling of S1P5 receptor to G proteins was measured in a ^35S-GTPγS binding assay. Membranes were prepared from transfected cells by homogenization in ice cold 20 mM HEPES pH 7.4, 10 mM EDTA using a Kinematica polytron (setting 5, for 10 seconds). Homogenates were centrifuged at 48,000×g for 15 minutes at 4° C. and the pellet suspended in 20 mM HEPES pH 7.4, 0.1 mM EDTA. Following a second centrifugation, the final pellet was suspended in 20 mM HEPES pH 7.4, 100 mM NaCl, 10 mM MgCl2. Membranes were incubated in 200 μL with 5 μM GDP, various concentrations of S1P (sonicated in 1% BSA), and 100 pM ^35S-GTPγS (NEN; specific activity 1250 Ci/mmol) in 96 well microtiter dishes. Binding was performed for one hour at room temperature, and terminated by harvesting the membranes onto GF/B filter plates with a Packard Filtermate Universal Harvester. After drying the filter plates for 30 min, 40 μL of MICROSCINT 20 was added to each well and binding was measured on a Packard Top Count scintillation counter.
(In general: Binding of GTPγS marks nucleotide exchange on a G protein.)

In assay [2] the target is T1, cS1P5 receptor. Description: S1P ligand binding assay with transfected CHO cells expressing the cS1P5 receptor. Also noted: species or system Canis (dog). The note with it: 33P-S1P, 60 minutes at room temperature, FIG. 3. The method, then:
The transfected CHO cells from Example 2 expressing the cS1P5 receptor were evaluated for the ability of the cS1P5 receptor expressed in the cells to properly integrate into the cell membrane and bind S1P.
Transfected CHO cells from Example 2 were harvested with enzyme-free dissociation solution (Specialty Media, Lavallette, N.J.). The cells were washed once in cold PBS and suspended in S1P binding buffer (50 mM HEPES-Na, pH 7.5, 5mM MgCl2, 1 mM CaCl2, 0.5% FAF-BSA). ^33P-S1P was synthesized enzymatically from γ^33P-ATP and sphingosine using a crude extract with sphingosine kinase activity in a reaction mix containing 50 mM KH2PO4, 1 mM mercaptoethanol, 1 mM Na3VO4, 25 mM KF, 2 mM semicarbazide, 1 mM Na2EDTA, 5 mM MgCl2, […], 0.1% TritonX-114, and 1 mCi γ^33P-ATP (NEN; specific activity 2000 Ci/mmol). Reaction products were extracted with butanol and ^33P-sphingosine-1-phosphate was purified by HPLC.
^33P-S1P (0.1 uCi/ml) was sonicated with 0.2 nM sphingosine-1-phosphate dissolved in binding buffer; 100 μL of the mixture was added to 100 μL cells (1×10^5). Binding was performed for 60 minutes at room temperature. […] After drying the filter plates for 30 minutes, 50 μL of MICROSCINT 20 was added to each well and binding was measured with a Packard Top Count. Non-specific binding was defined as the amount of radioactivity remaining in the presence of 200 nM cold S1P.

For the compound `CCCCCCCCCCCCC/C=C/[C@@H](O)[C@@H](N)COP(=O)(O)O` [S1P, sphingosine-1-phosphate], the values for the concentration for a half-maximal effect (EC50) on cS1P5 receptor [1] and on cS1P5 receptor [2] were about 0.79 nM and about 0.21 nM, respectively.

By EC50 is commonly meant the midpoint of the concentration-response curve.

Values taken from patent US20090191578A1, “Canis sphingosine 1-phosphate receptor isoform 5” (MERCK & CO., INC, priority 2004, published 2009).
